Calls of active or inactive are those of the source. The rule behind the calls is not given here.
Experiments:
Sialidase = target: T1, Sialidase (Clostridium perfringens, UniProt P10481); assay: Inhibition of Clostridium perfringens neuraminidase
T1 sequence (P10481 whole entry): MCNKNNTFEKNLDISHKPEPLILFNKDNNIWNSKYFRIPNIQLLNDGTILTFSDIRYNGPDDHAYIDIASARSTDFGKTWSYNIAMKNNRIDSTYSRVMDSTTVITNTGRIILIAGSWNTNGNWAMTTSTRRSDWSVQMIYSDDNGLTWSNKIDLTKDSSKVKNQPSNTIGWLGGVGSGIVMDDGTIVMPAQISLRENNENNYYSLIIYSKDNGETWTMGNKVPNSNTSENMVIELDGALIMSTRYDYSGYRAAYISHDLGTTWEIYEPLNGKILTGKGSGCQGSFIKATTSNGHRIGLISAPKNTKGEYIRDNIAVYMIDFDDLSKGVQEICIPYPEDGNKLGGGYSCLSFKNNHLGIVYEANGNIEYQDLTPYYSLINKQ

Neuraminidase = Neuraminidase (Influenza A virus, UniProt B4URF0); assay: Noncompetitive inhibition of recombinant influenza A virus rvH1N1 A/Bervig_Mission/1/18 neuraminidase
[1] = Cytotoxicity against MDCK cells after 48 hrs by MTT assay; assay type: cell-based, Canis lupus familiaris; settings: dog
Influenza A virus [2] = assay: Antiviral activity against influenza A virus H1N1 A/PR/8/34 infected in MDCK cells assessed as reduction in virus-induced cytopathic effect; assay type: functional, organism-based; settings: A/Puerto Rico/8/1934(H1N1)
Influenza A virus [3] = assay: Antiviral activity against influenza A virus H9N2 A/Chicken/Korea/MS96/96 infected in MDCK cells assessed as reduction in virus-induced cytopathic effect; assay type: functional, organism-based; settings: A/Chicken/Korea/MS96/96, MDCK
[4] = Selectivity index, ratio of CC50 for MDCK cells to EC50 for influenza virus H1N1 A/PR/8/34; assay type: toxicity, cell-based; settings: dog, read-out: Ratio CC50/EC50
[5] = Selectivity index, ratio of CC50 for MDCK cells to EC50 for influenza virus H9N2 A/Chicken/Korea/MS96/96; assay type: toxicity, cell-based; settings: dog, read-out: Ratio CC50/EC50
Influenza A virus [6] = assay: Antiviral activity against influenza A virus H1N1 A/PR/8/34 infected in MDCK cells assessed as reduction in fluorescence positive cells at 50 uM immunofluorescence assay; assay type: functional, organism-based; settings: A/Puerto Rico/8/1934(H1N1)

SMILES	IC50 (Sialidase)	IC50 (Neuraminidase)	Ki (Neuraminidase)	CC50 at 48 h [1]	EC50 (Influenza A virus [2])	EC50 (Influenza A virus [3])	selectivity ratio [4]	selectivity ratio [5]	Activity (Influenza A virus [6])
COc1cc([C@H]2Oc3cc(O)c4c(=O)c(O)c(-c5ccc(O)cc5)oc4c3O[C@@H]2CO)ccc1O [RHODIOLININ]	6.1 µM	10.3 µM	14.1 µM	> 300 µM	41.7 µM	29.3 µM	> 7.19	> 10.2	–
C[C@@H]1O[C@@H](Oc2cc(O)c3c(=O)c(O)c(-c4ccc(O)cc4)oc3c2O)[C@H](O)[C@H](O[C@@H]2O[C@H](CO)[C@@H](O)[C@H](O)[C@H]2O)[C@H]1O [RHODIOSIN]	56.9 µM	56.5 µM	64.1 µM	297 µM	–	–	3.63	8.47	–
O=c1cc(-c2ccc(O)cc2)oc2cc(O[C@@H]3O[C@H](CO)[C@@H](O)[C@H](O)[C@H]3O)cc(O)c12 [APIGETRIN]	39.3 µM	46.9 µM	53.8 µM	–	–	–	–	–	–
C[C@@H]1O[C@@H](OC[C@H]2O[C@@H](Oc3c(-c4ccc(O)c(O)c4)oc4cc(O)cc(O)c4c3=O)[C@H](O)[C@@H](O)[C@@H]2O)[C@H](O)[C@H](O)[C@H]1O [RUTIN]	30.9 µM	34.4 µM	33.8 µM	–	–	–	–	–	–
O=c1c(O[C@@H]2O[C@H](CO)[C@@H](O)[C@H](O)[C@H]2O)c(-c2ccc(O)cc2)oc2cc(O)cc(O)c12 [ASTRAGALIN]	29.4 µM	38.4 µM	33 µM	> 300 µM	40 µM	61.9 µM	> 7.5	> 4.85	–
C[C@@H]1O[C@@H](Oc2cc(O)c3c(=O)c(O)c(-c4ccc(O)cc4)oc3c2O)[C@H](O)[C@H](O[C@H]2O[C@@H](CO)[C@H](O)[C@@H](O)[C@@H]2O)[C@H]1O [RHODIOSIN]	–	–	–	–	81.9 µM	35.1 µM	–	–	–
O=c1c(O)c(-c2ccc(O)c(O)c2)oc2cc(O)cc(O)c12 [QUERCETIN]	1.7 µM	2.2 µM	3.8 µM	254 µM	43.1 µM	134 µM	5.89	1.9	–
O=c1cc(-c2ccc(O)c(O)c2)oc2cc(O)cc(O)c12 [LUTEOLIN]	4.3 µM	11 µM	19.6 µM	165 µM	84 µM	103 µM	1.96	1.6	–
CCOC(=O)C1=C[C@@H](OC(CC)CC)[C@H](NC(C)=O)[C@@H](N)C1 [OSELTAMIVIR]	–	–	–	> 300 µM	8.3 µM	6.25 µM	–	–	Active
O=c1c(O)c(-c2ccc(O)cc2)oc2c(O)c(O)cc(O)c12 [HERBACETIN]	1.4 µM	8.9 µM	13.7 µM	294 µM	35 µM	23 µM	8.39	12.8	–
C[C@@H]1O[C@@H](OC[C@H]2O[C@@H](Oc3c(-c4ccc(O)cc4)oc4cc(O)cc(O)c4c3=O)[C@H](O)[C@@H](O)[C@@H]2O)[C@H](O)[C@H](O)[C@H]1O [NICOTIFLOROSIDE]	55.5 µM	31.7 µM	32.7 µM	> 300 µM	40.1 µM	72.9 µM	> 7.48	> 4.12	–
C[C@@H]1OC(Oc2cc(O)c3c(=O)c(O)c(-c4ccc(O)cc4)oc3c2O)[C@H](O)[C@H](O)[C@H]1O (stereo partly specified) [RHODIONIN]	40.6 µM	32.2 µM	59.4 µM	> 300 µM	74.8 µM	49.6 µM	> 4.01	> 6.05	–
O=c1c(O)c(-c2ccc(O)c(O)c2)oc2c(O)c(O)cc(O)c12 [GOSSYPETIN]	0.8 µM	2.6 µM	7.7 µM	283 µM	43 µM	36.3 µM	6.58	7.8	–
O=c1cc(-c2ccc(O)cc2)oc2cc(O)cc(O)c12 [APIGENIN]	–	33.4 µM	37.1 µM	> 300 µM	60.4 µM	42.7 µM	> 4.97	> 7.03	–
O=c1c(O[C@@H]2O[C@H](CO)[C@@H](O)[C@H](O)[C@H]2O)c(-c2ccc(O)cc2)oc2c(O[C@@H]3O[C@H](CO)[C@@H](O)[C@H](O)[C@H]3O)c(O)cc(O)c12 [LINOCINAMARIN]	39.1 µM	44.2 µM	63.8 µM	> 300 µM	99.1 µM	100 µM	> 3.03	> 3	–
O=c1c(O)c(-c2ccc(O)cc2)oc2cc(O)cc(O)c12 [KAEMPFEROL]	8 µM	11.2 µM	21.1 µM	> 300 µM	30.2 µM	18.5 µM	> 9.93	> 16.2	Active
